# Assay results taken from patent US20210386367A1, “DEVICES AND SYSTEMS FOR GASTROINTESTINAL MICROBIOME DETECTION AND MANIPULATION” (Progenity, Inc., priority 2018, published 2021).
# “Also recorded” adds a separate entry of the source. Like-named read-outs stand apart in the source and are kept apart here.
# Legend:
# [1] = test system: Bacteroides non fragilis clinical isolates; experiment: MIC distribution against clinical isolates; assay type: cell-based; conditions: 29 Bacteroides non-fragilis isolates
# [2] = test system: S. pyogenes ATCC 49399; experiment: Time-kill assay; assay type: cell-based, Streptococcus pyogenes; conditions: 2×, 4×, 8× MIC; 2, 6, 24 hr
# [3] = test system: S. agalactiae ATCC 13813; experiment: Time-kill assay; assay type: cell-based, Streptococcus agalactiae; conditions: 2×, 4×, 8× MIC; 2, 6, 24 hr
# [4] = test system: B. fragilis ATCC 25285; experiment: Broth microdilution MIC (time-kill study); assay type: cell-based, Bacteroides fragilis
# [5] = test system: Escherichia coli; experiment: Broth microdilution MIC, 50 clinical isolates (incl. ESBL, one NDM-1); assay type: cell-based
# Experimental: Minimal inhibitory concentration (MIC) values were determined by broth microdilution or agar dilution in accordance with guidelines from the Clinical and Laboratory Standards Institute (CLSI; (1) “Methods for Dilution Antimicrobial Susceptibility Tests for Bacteria That Grow Aerobically; Approved Standard; 11th ed.” CLSI standard M07-A11, 2018; (2) “Performance Standards for Antimicrobial Susceptibility Testing; Twenty-Eighth Informational Supplement,” CLSI document M100-S28, 2018; and (3) “Methods for Antimicrobial Susceptibility Testing of Anaerobic Bacteria; Approved Standard—Eighth Edition,” CLSI document M11-A8, 2012).
# Tested aerobically by broth microdilution: • Escherichia coli, n=50 • Klebsiella spp., n=50 • Pseudomonas aeruginosa, n=50 • Streptococcus spp., n=50 • Staphylococcus aureus, n=50 • Enterococcus faecalis, n=50 • Enterobacter aerogenes, n=50 • Proteus mirabilis, n=50
# Broth microdilution testing of aerobic bacteria was conducted in cation-adjusted Mueller Hinton broth (MHBII). For testing streptococci, lysed horse blood (LHB) was added to MHBII broth at a final concentration of 3%. Where LHB was used, it was added after filtering.
# Broth microdilution susceptibility testing in 96-well microplates was conducted in accordance with CLSI methods (1) and (2). Automated liquid handlers were used to conduct serial dilutions and liquid transfers, including the Multidrop 384 (Labsystems, Helsinki, Finland), Biomek 2000, and the Biomek FX (Beckman Coulter, Fullerton, Calif.). All wells in columns 2 through 12 of a standard 96-well microdilution plate (Costar 3795) were filled with 150 μL of the appropriate diluent. Then, 300 μL of the test agents were added to the wells of column 1 of the plates at 100× the highest final concentration to be tested. Serial two-fold dilutions were made across the rows through column 11 using the Biomek 2000. The wells of column 12 contained no drug and served as the growth control wells. This plate served as the “mother plate” from which MIC assay plates or “daughter plates” were made.
# The daughter plates were loaded with 190 μL per well of the appropriate medium using the Multidrop 384. The daughter plates were created using the Biomek FX which transferred 2 μL of drug solution from each well of a mother plate to each corresponding well of the daughter plate in a single step. A standardized inoculum of each test organism was prepared per CLSI methods (1) to equal a 0.5 McFarland standard, followed by a dilution of 1:20 for aerobes and 1:10 for anaerobes. The plates were then inoculated with 10 μL of the diluted inoculum using the Biomek 2000 from low to high drug concentration, resulting in a final concentration of approximately 5×10^5 CFU/mL per well. An un-inoculated plate was incubated in parallel for each medium for the purpose of assessing solubility of the drug in the test media.
# Inoculated plates were stacked 3 or 4 high, covered with a sterile lid on the top plate, placed into boxes with CO2 planchets (streptococci) or plastic bags (all other isolates). Plates were incubated at 35° C. for 16-24 hr in ambient air for aerobes or for 42-48 hr in the anaerobic environment of the Bactron II anaerobe chamber (Sheldon Manufacturing Co.; Cornelius, Oreg.). Following incubation, the microplates were removed from the incubator and viewed from the bottom using a plate viewer. The MIC values were read and recorded as the lowest concentration of drug that inhibited visible growth of the organism as per CLSI methods (1) and (2).
# [6] = test system: S. pneumoniae ATCC 49619; experiment: Time-kill assay; assay type: cell-based, Streptococcus pneumoniae; conditions: for time-kill kinetics outcome (bactericidal = ≥3 log reduction in CFU per mL): 2×, 4×, 8× MIC, 2, 6, 24 hr
# [7] = test system: B. vulgatus ATCC 8482; experiment: Broth microdilution MIC (time-kill study); assay type: cell-based, Bacteroides vulgatus
# [8] = test system: Streptococcus spp. (S. pneumoniae ATCC 49619, S. pyogenes ATCC 49399, S. agalactiae ATCC 13813); experiment: Agar dilution MIC (spontaneous mutation study; strain in conditions); assay type: cell-based
smiles,measurement,setting,value
C[C@@H](O)[C@H]1C(=O)N2C(C(=O)O)=C(S[C@@H]3CN[C@H](C(=O)N(C)C)C3)[C@H](C)[C@H]12 [meropenem],Cumulative percentage of isolates inhibited at MIC,[1]; MIC 0.06 μg/mL,6.9%
same,Number of test isolates at MIC,[1]; MIC 0.06 μg/mL,2
same,Cumulative percentage of isolates inhibited at MIC,[1]; MIC 0.5 μg/mL,75.9%
same,Number of test isolates at MIC,[1]; MIC 0.5 μg/mL,10
same,Cumulative percentage of isolates inhibited at MIC,[1]; MIC 1 μg/mL,82.8%
same,Number of test isolates at MIC,[1]; MIC 1 μg/mL,2
same,Cumulative percentage of isolates inhibited at MIC,[1]; MIC 2 μg/mL,93.1%
same,Number of test isolates at MIC,[1]; MIC 2 μg/mL,3
same,Cumulative percentage of isolates inhibited at MIC,[1]; MIC 4 μg/mL,96.6%
same,Number of test isolates at MIC,[1]; MIC 4 μg/mL,1
same,Cumulative percentage of isolates inhibited at MIC,[1]; MIC >8 μg/mL,100.0%
same,Number of test isolates at MIC,[1]; MIC >8 μg/mL,1
same,time-kill kinetics outcome (bactericidal = ≥3 log reduction in CFU per mL),[2],bactericidal effect at 4× and 8×MIC at 24 hr
same,time-kill kinetics outcome (bactericidal = ≥3 log reduction in CFU per mL),[3],bactericidal effect at 24 hr at 8×MIC
same,MIC,[4]; B. fragilis MMX 123 ATCC 25285,0.06 µg/mL
same,MIC,"[4]; Bacteroides fragilis, ATCC25285, broth microdilution, read-out: MIC",0.06 µg/mL
same,% R,[5],2%
same,% S,[5],Ninety-eight
same,Mode,[5],0.015 µg/mL
same,relative activity among drugs tested,[5],most active drug tested; also recorded: most active agent
same,Cumulative percentage of isolates inhibited at MIC,[5]; 0.015 μg/mL,78.0%
same,Number of test isolates at MIC,[5]; 0.015 μg/mL,21
same,Cumulative percentage of isolates inhibited at MIC,[5]; 0.03 μg/mL,90.0%
same,Number of test isolates at MIC,[5]; 0.03 μg/mL,6
same,Cumulative percentage of isolates inhibited at MIC,[5]; 0.06 μg/mL,92.0%
same,Number of test isolates at MIC,[5]; 0.06 μg/mL,1
same,Cumulative percentage of isolates inhibited at MIC,[5]; >8 μg/mL,100.0%
same,Number of test isolates at MIC,[5]; >8 μg/mL,1
same,MIC50,"[5]; Escherichia coli, read-out: MIC50",0.015 µg/mL
same,MIC90,"[5]; Escherichia coli, read-out: MIC90",0.03 µg/mL
same,Cumulative percentage of isolates inhibited at MIC,[5]; […],98.0%
same,Number of test isolates at MIC,[5]; […],3
same,% R,[5]; listed as MEM,2%
same,% S,[5]; listed as MEM,98%
same,Cumulative percentage of isolates inhibited at MIC,[5]; ≤0.008 μg/mL,36.0%
same,Number of test isolates at MIC,[5]; ≤0.008 μg/mL,18
same,time-kill kinetics outcome (bactericidal = ≥3 log reduction in CFU per mL),[6],all three drug concentrations tested demonstrated bactericidal effects at 24 hr
same,MIC,[7]; B. vulgatus ATCC 8482,0.12 µg/mL
same,MIC,"[7]; Phocaeicola vulgatus, ATCC8482, broth microdilution, read-out: MIC",0.12 µg/mL
same,MIC,"[8]; Streptococcus agalactiae, S. agalactiae ATCC 13813, read-out: Agar MIC",0.03 µg/mL
same,MIC,"[8]; Streptococcus pneumoniae, S. pneumoniae ATCC 49619, read-out: Agar MIC",0.06 µg/mL
same,MIC,"[8]; Streptococcus pyogenes, S. pyogenes ATCC 49399, read-out: Agar MIC",0.008 µg/mL
same,MIC,"[8]; over evaluated Streptococcus spp. (range stated jointly with other groups), read-out: MIC values (agar dilution)",0.008 to 0.12 µg/mL
CO[C@H]1/C=C/O[C@@]2(C)Oc3c(C)c(O)c4c(O)c(c5c(nc6cc(C)ccn65)c4c3C2=O)NC(=O)/C(C)=C\C=C\[C@H](C)[C@H](O)[C@@H](C)[C@@H](O)[C@@H](C)[C@H](OC(C)=O)[C@@H]1C [rifaximin],Number of test isolates at MIC,[1]; MIC […],12
same,Number of test isolates at MIC,[1]; MIC ≤0.03 μg/mL,3
same,time-kill kinetics outcome (bactericidal = ≥3 log reduction in CFU per mL),[2],"bacteriostatic effect against this organism at 2×, 4×, and 8× the MIC"
same,time-kill kinetics outcome (bactericidal = ≥3 log reduction in CFU per mL),[3],bacteriostatic effect at 4× and 8× the MIC
same,MIC,[4]; B. fragilis MMX 123 ATCC 25285,0.5 µg/mL
same,MIC,[4]; broth microdilution,0.05 µg/mL
same,MIC50,[5],8 µg/mL
same,MIC90,[5],16 µg/mL
same,MIC range,[5],1 to 32 µg/mL
same,Mode,[5],8 µg/mL
same,Cumulative percentage of isolates inhibited at MIC,[5]; 1 μg/mL,2.0%
same,Number of test isolates at MIC,[5]; 1 μg/mL,1
same,Cumulative percentage of isolates inhibited at MIC,[5]; 2 μg/mL,6.0%
same,Number of test isolates at MIC,[5]; 2 μg/mL,2
same,Cumulative percentage of isolates inhibited at MIC,[5]; 4 μg/mL,34.0%
same,Number of test isolates at MIC,[5]; 4 μg/mL,14
same,Cumulative percentage of isolates inhibited at MIC,[5]; 8 μg/mL,80.0%
same,Number of test isolates at MIC,[5]; 8 μg/mL,23
same,Cumulative percentage of isolates inhibited at MIC,[5]; 16 μg/mL,98.0%
same,Number of test isolates at MIC,[5]; 16 μg/mL,9
same,Cumulative percentage of isolates inhibited at MIC,[5]; 32 μg/mL,100.0%
same,Number of test isolates at MIC,[5]; 32 μg/mL,1
same,time-kill kinetics outcome (bactericidal = ≥3 log reduction in CFU per mL),[6],rebounded to no-drug control levels at 24 hr
same,CFU decrease,"[6]; all three concentrations, 6 hr timepoint",approximately 2.3 log10 CFU
same,MIC,[7]; B. vulgatus ATCC 8482,0.25 µg/mL
same,MIC,[7]; broth microdilution,0.25 µg/mL
same,Agar MIC,[8]; S. agalactiae ATCC 13813,0.25 µg/mL
same,Agar MIC,[8]; S. pneumoniae ATCC 49619,0.03 µg/mL
same,Agar MIC,[8]; S. pyogenes ATCC 49399,0.12 µg/mL
same,MIC values (agar dilution),[8]; over evaluated Streptococcus spp. (range stated jointly with other groups),0.03 to 0.5 µg/mL
